Each compound was assayed against T1, human β-secretase (Homo sapiens, UniProt P56817) (assay: TR-FRET assay (β-secretase enzyme, sBACE-Fc)). Conditions: read-out: IC50 in TR-FRET assay.
T1 construct: The soluble part of the human β-secretase (AA 1-AA 460) was cloned; made in house
Type: biochemical
Experimental: The enzyme used in the IGEN Cleavage-, Fluorescent-, TR-FRET- and BiaCore assays is described as follows:
The soluble part of the human β-secretase (AA 1-AA 460) was cloned into the ASP2-F10-1-IRES-GFP-neoK mammalian expression vector. The gene was fused to the Fc domain of IgG1 (affinity tag) and stably cloned into HEK 293 cells. Purified sBACE-Fc is stored in Tris buffer, pH 9.2 and has a purity of 95%.
Enzyme was diluted to 6 μg/mL and the substrate (Europium)[…](Qsy7) to 200 nM in reaction buffer (NaAcetate, chaps, triton x-100, EDTA pH 4.5). Compounds were diluted to the desired concentration in dimethyl sulfoxide (final dimethyl sulfoxide concentration in assay is 5%). […] Enzyme (9 μL) and 1 μL of compound in dimethyl sulfoxide was added to the plate, mixed and pre-incubated for 10 min. Substrate (10 μL) was added and the reaction proceeded in the dark for 15 min at RT. The reaction was stopped with the addition of 7 μL NaAcetate, pH 9. […] The dimethyl sulfoxide control defined the 100% activity level and 0% activity was defined by exclusion of the enzyme (using reaction buffer instead).

T1 sequence (P56817 22-460): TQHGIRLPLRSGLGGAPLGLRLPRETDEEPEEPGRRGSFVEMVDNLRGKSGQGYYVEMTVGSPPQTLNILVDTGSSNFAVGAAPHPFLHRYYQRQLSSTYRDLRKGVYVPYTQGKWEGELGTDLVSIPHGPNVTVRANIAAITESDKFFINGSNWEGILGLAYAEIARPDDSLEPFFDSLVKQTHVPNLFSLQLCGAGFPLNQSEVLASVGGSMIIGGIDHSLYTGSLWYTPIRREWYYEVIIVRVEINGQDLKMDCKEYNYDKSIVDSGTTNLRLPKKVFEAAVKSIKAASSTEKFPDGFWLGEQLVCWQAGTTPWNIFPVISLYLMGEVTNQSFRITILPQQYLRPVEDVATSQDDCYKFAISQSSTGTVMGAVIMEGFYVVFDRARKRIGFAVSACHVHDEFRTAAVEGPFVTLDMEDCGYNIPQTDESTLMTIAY

Compound | IC50 [nM]
COc1cccc(-c2cccc(C3(c4cccc(OS(=O)(=O)C5CC5)c4)N=C(N)N4CCCN=C43)c2)c1 (stereo not shown) [Example 127, 3-[6-Amino-8-(3′-methoxybiphenyl-3-yl)-2,3,4,8-tetrahydroimidazo[1,5-a]pyrimidin-8-yl]phenyl cyclopropanesulfonate] | 177
CCOc1cccc(-c2cccc(C3(c4ccc(OS(C)(=O)=O)cc4)N=C(N)N4CCCN=C43)c2)c1 (stereo not shown) [Example 44, 4-[6-Amino-8-(3′-ethoxybiphenyl-3-yl)-2,3,4,8-tetrahydroimidazo[1,5-a]pyrimidin-8-yl]phenyl methanesulfonate 0.5 acetate] | 471
CC(C)S(=O)(=O)Oc1ccc(C2(c3cccc(-c4cc(Cl)cc(Cl)c4)c3)N=C(N)N3CCN=C32)cc1 (stereo not shown) [Example 81, 4-[5-Amino-7-(3′,5′-dichlorobiphenyl-3-yl)-2,7-dihydro-3H-imidazo[1,5-a]imidazol-7-yl]phenyl propane-2-sulfonate 0.5 acetate] | 417
CS(=O)(=O)Oc1cccc(C2(c3cccc(-c4cc(C(F)(F)F)cc(C(F)(F)F)c4)c3)N=C(N)N3CCCN=C32)c1 (stereo not shown) [Example 114, 3-{6-Amino-8-[3′,5′-bis(trifluoromethyl)biphenyl-3-yl]-2,3,4,8-tetrahydroimidazo[1,5-a]pyrimidin-8-yl}phenyl methanesulfonate] | 246
CS(=O)(=O)Oc1cccc(C2(c3cccc(-c4cncnc4)c3)N=C(N)N3CCCN=C32)c1 (stereo not shown) [Example 120, 3-[6-Amino-8-(3-pyrimidin-5-ylphenyl)-2,3,4,8-tetrahydroimidazo[1,5-a]pyrimidin-8-yl]phenyl methanesulfonate] | 272
NC1=NC(c2cccc(OS(=O)(=O)C(F)(F)F)c2)(c2cccc(-c3cncnc3)c2)C2=NCCCN12 (stereo not shown) [Example 132, 3-[6-Amino-8-(3-pyrimidin-5-ylphenyl)-2,3,4,8-tetrahydroimidazo[1,5-a]pyrimidin-8-yl]phenyl trifluoromethanesulfonate] | 375
CS(=O)(=O)Oc1ccc(C2(c3cccc(-c4cccc(OC(F)(F)F)c4)c3)N=C(N)N3CCCN=C32)cc1 (stereo not shown) [Example 41, 4-{6-Amino-8-[3′-(trifluoromethoxy)biphenyl-3-yl]-2,3,4,8-tetrahydroimidazo[1,5-a]pyrimidin-8-yl}phenyl methanesulfonate 0.5 acetate] | 981
NC1=NC(c2ccc(OS(=O)(=O)C3CC3)cc2)(c2cccc(-c3cccc(Cl)c3F)c2)C2=NCCCN12 (stereo not shown) [Example 71, 4-[6-Amino-8-(3′-chloro-2′-fluorobiphenyl-3-yl)-2,3,4,8-tetrahydroimidazo[1,5-a]pyrimidin-8-yl]phenyl cyclopropane sulfonate 0.75 acetate] | 390
CCCS(=O)(=O)Oc1cccc(C2(c3cccc(-c4cc(Cl)cc(Cl)c4)c3)N=C(N)N3CCCN=C32)c1 (stereo not shown) [Example 123, 3-[6-Amino-8-(3′,5′-dichlorobiphenyl-3-yl)-2,3,4,8-tetrahydroimidazo[1,5-a]pyrimidin-8-yl]phenyl propane-1-sulfonate] | 106
NC1=NC(c2ccc(OS(=O)(=O)C3CC3)cc2)(c2cccc(-c3cccnc3F)c2)C2=NCCCN12 (stereo not shown) [Example 69, 4-{6-Amino-8-[3-(2-fluoropyridin-3-yl)phenyl]-2,3,4,8-tetrahydroimidazo[1,5-a]pyrimidin-8-yl}phenyl cyclopropane sulfonate 0.75 acetate] | 313
NC1=NC(c2cccc(OS(=O)(=O)C3CC3)c2)(c2cccc(-c3cc(Cl)cc(Cl)c3)c2)C2=NCCCN12 (stereo not shown) [Example 126, 3-[6-Amino-8-(3′,5′-dichlorobiphenyl-3-yl)-2,3,4,8-tetrahydroimidazo[1,5-a]pyrimidin-8-yl]phenyl cyclopropanesulfonate] | 156
COc1cccc(-c2cccc(C3(c4ccc(OS(C)(=O)=O)cc4)N=C(N)N4CCCN=C43)c2)c1 (stereo not shown) [Example 31, 4-[6-Amino-8-(3′-methoxybiphenyl-3-yl)-2,3,4,8-tetrahydroimidazo[1,5-a]pyrimidin-8-yl]phenyl methanesulfonate acetate] | 156
CS(=O)(=O)Oc1ccc(C2(c3cccc(-c4cnccn4)c3)N=C(N)N3CCCN=C32)cc1 (stereo not shown) [Example 32, 4-[6-Amino-8-(3-pyrazin-2-ylphenyl)-2,3,4,8-tetrahydroimidazo[1,5-a]pyrimidin-8-yl]phenyl methanesulfonate acetate] | 501
CN(C)C(=O)c1ccc(C2(c3cccc(-c4cccnc4F)c3)N=C(N)N3CC(F)(F)CN=C32)cc1 (stereo not shown) [Example 146, 4-{6-Amino-3,3-difluoro-8-[3-(2-fluoropyridin-3-yl)phenyl]-2,3,4,8-tetrahydroimidazo[1,5-a]pyrimidin-8-yl}-N,N-dimethylbenzamide] | 214
CCCS(=O)(=O)Oc1ccc(C2(c3cccc(-c4cccc(Cl)c4F)c3)N=C(N)N3CCCN=C32)cc1 (stereo not shown) [Example 62, 4-[6-Amino-8-(3′-chloro-2′-fluorobiphenyl-3-yl)-2,3,4,8-tetrahydroimidazo[1,5-a]pyrimidin-8-yl]phenyl propane-1-sulfonate 0.75 acetate] | 254
COc1cccc(-c2cccc(C3(c4ccc(OS(=O)(=O)C5CC5)cc4)N=C(N)N4CCCN=C43)c2)c1 (stereo not shown) [Example 65, 4-[6-Amino-8-(3′-methoxybiphenyl-3-yl)-2,3,4,8-tetrahydroimidazo[1,5-a]pyrimidin-8-yl]phenyl cyclopropane sulfonate 0.75 acetate] | 248
NC1=NC(c2ccc(OS(=O)(=O)C(F)(F)F)cc2)(c2cccc(-c3cccc(Cl)c3)c2)C2=NCCN12 (stereo not shown) [Example 90, 4-[5-Amino-7-(3′-chlorobiphenyl-3-yl)-2,7-dihydro-3H-imidazo[1,5-a]imidazol-7-yl]phenyl trifluoromethanesulfonate 0.75 acetate] | 113
CCCS(=O)(=O)Oc1ccc(C2(c3cccc(-c4cnccn4)c3)N=C(N)N3CCCN=C32)cc1 (stereo not shown) [Example 54, 4-[6-Amino-8-(3-pyrazin-2-ylphenyl)-2,3,4,8-tetrahydroimidazo[1,5-a]pyrimidin-8-yl]phenyl propane-1-sulfonate acetate] | 347
CS(=O)(=O)Oc1cccc(C2(c3cccc(-c4cc(Cl)cc(Cl)c4)c3)N=C(N)N3CCCN=C32)c1 (stereo not shown) [Example 116, 3-[6-Amino-8-(3′,5′-dichlorobiphenyl-3-yl)-2,3,4,8-tetrahydroimidazo[1,5-a]pyrimidin-8-yl]phenyl methanesulfonate] | 285
COc1cccc(-c2cccc(C3(c4cccc(OS(C)(=O)=O)c4)N=C(N)N4CCCN=C43)c2)c1 (stereo not shown) [Example 118, 3-[6-Amino-8-(3′-methoxybiphenyl-3-yl)-2,3,4,8-tetrahydroimidazo[1,5-a]pyrimidin-8-yl]phenyl methanesulfonate] | 645
CCCS(=O)(=O)Oc1cccc(C2(c3cccc(-c4cncnc4)c3)N=C(N)N3CCCN=C32)c1 (stereo not shown) [Example 125, 3-[6-Amino-8-(3-pyrimidin-5-ylphenyl)-2,3,4,8-tetrahydroimidazo[1,5-a]pyrimidin-8-yl]phenyl propane-1-sulfonate] | 51
NC1=NC(c2ccc(OS(=O)(=O)C3CC3)cc2)(c2cccc(-c3cc(Cl)cc(Cl)c3)c2)C2=NCCCN12 (stereo not shown) [Example 66, 4-[6-Amino-8-(3′,5′-dichlorobiphenyl-3-yl)-2,3,4,8-tetrahydroimidazo[1,5-a]pyrimidin-8-yl]phenyl cyclopropanesulfonate 0.75 acetate] | 66

Source: US20080051420A1, “New Compounds 317” (AstraZeneca AB, priority 2006, published 2008)
